Laboratory results from US7989458B2, “Pyrimidine derivatives as alk-5 inhibitors” (Novartis AG, priority 2006, dated 2011).

T1: human ALK5 (ALK5 T204D kinase domain) (Homo sapiens, UniProt P36897, T204D)
T1 construct: The kinase domain of human ALK5 (amino acids 200-503); made in house; host or cells: insect cells (baculovirus)
T1 sequence (P36897 200-503 T204D): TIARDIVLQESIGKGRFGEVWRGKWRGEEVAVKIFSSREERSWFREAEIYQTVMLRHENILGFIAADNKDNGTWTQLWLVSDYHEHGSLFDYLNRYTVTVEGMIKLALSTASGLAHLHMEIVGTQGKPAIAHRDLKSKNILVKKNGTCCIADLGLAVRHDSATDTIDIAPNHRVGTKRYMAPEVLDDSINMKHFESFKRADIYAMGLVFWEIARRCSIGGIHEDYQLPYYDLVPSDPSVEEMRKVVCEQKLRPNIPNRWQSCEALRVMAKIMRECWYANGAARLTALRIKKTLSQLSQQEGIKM

B1: Follistatin: an antagonist of activin signalling (protein, UniProt P19883 30-344, looked up)
Follistatin: GNCWLRQAKNGRCQVLYKTELSKEECCSTGRLSTSWTEEDVNDNTLFKWMIFNGGAPNCIPCKETCENVDCGPGKKCRMNKKNKPRCVCAPDCSNITWKGPVCGLDGKTYRNECALLKARCKEQPELEVQYQGRCKKTCRDVFCPGSSTCVVDQTNNAYCVTCNRICPEPASSEQYLCGNDGVTYSSACHLRKATCLLGRSIGLAYEGKCIKAKSCEDIQCTGGKKCLWDFKVGRGRCSLCDELCPDSKSDEPVCASDNATYASECAMKEAACSSGVLLEVKHSGSCNSISEDTEEEEEDEDQDYSFPISSILEW

Tested on: bleomycin-treated rats
Assay: not given
Conditions: cited from earlier work
In the case of B1, the lung fibrosis is listed as “attenuated lung fibrosis” and the “number of macrophages and neutrophils in bronchoalveolar lavage” value is listed as “significantly reduced”.

Biological target: T1, human ALK5 (ALK5 T204D kinase domain)
Assay: ALK5 kinase activity, [33P] phosphate incorporation into casein
Assay type: biochemical
Conditions: casein substrate, 1 μM unlabelled ATP
Description: The kinase activity of ALK5 is assessed by measuring radiolabelled phosphate [33P] incorporation in to the generic substrate, casein. The kinase domain of human ALK5 (amino acids 200-503) is fused to an N-terminal histidine tag. The kinase activity of ALK5 is rendered constitutive via point mutation at amino acid 204 (threonine to aspartate modification, ALK5 T204D) and the kinase construct is engineered to be expressed from a baculovirus expression construct in insect cells. The purified, recombinantly-expressed histidine-tagged ALK5 T204D protein is dissolved at 5.4 mg/ml in 50 mM Tris-HCl pH 8.0, 150 mM NaCl, 5 mM DTT. ALK5 T204D is dissolved to 2.5 μg/ml in assay buffer (Assay buffer: 20 mM Tris-HCl pH 7.4, 10 mM MgCl2, 2 mM MnCl2) on the day of use.
Test compounds and reference compounds are dissolved in assay buffer without DTT containing 5% (v/v) DMSO. Stock solutions of test and reference compounds are diluted in assay buffer with DTT (1.25 mM) containing 4.5% (v/v) DMSO. 10 μl of test or reference compound are added to the appropriate wells of 96 well U-bottomed plate. Total enzyme activity is determined by measuring ALK5 T204D activity in the absence of ALK5 kinase inhibitor reference compounds. Non-specific binding (NSB) is determined by measuring the activity of ALK5 T204D in the presence of ALK5 kinase inhibitor reference compounds. 10 μl of dephosphorylated casein stock solution (dephosphorylated casein is dissolved in ddH2O at 20 mg/ml) is added per well (200 μg/well final assay concentration). 20 μl of ALK5 T204D (2.5 μg/ml solution) is added per well (50 ng/well final assay concentration). The plates are left to incubate at room temperature for 10 minutes.
10 μl of ATP mix is added to the well to initiate the reaction (0.66 nM [^33P]ATP/1 μM unlabelled ATP/well final assay concentration). The ATP mix is prepared as follows, unlabelled ATP (3 mM) is dissolved in ddH2O and pH adjusted to 7.4. The stock concentration of [^33P]ATP is 10 μCi/μl. The appropriate volume of [^33P]ATP is added to unlabelled ATP solution such that the final assay concentration per well is 0.1 μCi. Following addition of the ATP mix, the plates are incubated at room temperature for 50 minutes. The kinase reaction is terminated by the addition of 50 μL Stop Buffer (20 mM Tris-HCl pH 7.4, 10 mM EDTA).
75 μl/well from the reaction plate is transferred to a Multiscreen-IP plate (MultiScreen-IP plates are prepared by added 50 μL of 70% (v/v) ethanol per well and incubated for 5 minutes at room temperature. The ethanol is removed by aspiration via a MultiScreen HTS Vacuum Manifold unit (Millipore, Cat no: MSVMHT500). The plates are washed twice by adding 200 μl/well ddH2O). The MultiScreen-IP plate is incubated at room temperature for 30 minutes to allowing binding of casein to the plate. The MultiScreen-IP plates are washed three times by adding 200 μl/well 100 mM phosphoric acid solution and the gasket is carefully removed from the back of the MultiScreen-IP plate and the plate dried in the oven for 30 minutes. The MultiScreen-IP plate is backsealed, 50 μL of Microscint™20 is added, then the plates are topsealed and radiolabelled casein detected and quantified on a TopCount™ plate-reader using the ^33P scintillation protocol.
`c1ccc(-c2nc(NCc3cccc4[nH]ccc34)cc(-c3cccnc3)n2)nc1` [Example 1.1, (1H-Indol-4-ylmethyl)-(6-pyridin-3-yl-2-pyridin-2-yl-pyrimidin-4-yl)-amine] showed an IC50 of 100 nM. Work on `c1ccc(-c2nc(NCCc3cccc4[nH]ccc34)cc(-c3cccnc3)n2)nc1` [Example 1.2, [2-(1H-Indol-4-yl)-ethyl]-(6-pyridin-3-yl-2-pyridin-2-yl-pyrimidin-4-yl)-amine] yielded an IC50 of 30 nM. With `Cc1cccc(-c2nc(NCCc3c[nH]c4ccccc34)cc(-c3cccnc3)n2)n1` [Example 1.3, [2-(1H-Indol-3-yl)-ethyl]-[2-(6-methyl-pyridin-2-yl)-6-pyridin-3-yl-pyrimidin-4-yl]-amine] the IC50 was 60 nM. With `Cc1cccc(-c2nc(NCCc3cccc4[nH]ccc34)cc(-c3cccnc3)n2)n1` [Example 1.6, [2-(1H-Indol-4-yl)-ethyl]-[2-(6-methyl-pyridin-2-yl)-6-pyridin-3-yl-pyrimidin-4-yl]-amine] the IC50 was 20 nM. Molecule `Fc1ccc2[nH]cc(CCNc3cc(-c4cccnc4)nc(-c4ccccn4)n3)c2c1` [Example 1.15, [2-(5-Fluoro-1H-indol-3-yl)-ethyl]-(6-pyridin-3-yl-2-pyridin-2-yl-pyrimidin-4-yl)-amine] has an IC50 of 790 nM. `c1ccc(-c2nc(NCc3c[nH]c4ccccc34)cc(-c3cccnc3)n2)nc1` [Example 1.23, (1H-Indol-3-ylmethyl)-(6-pyridin-3-yl-2-pyridin-2-yl-pyrimidin-4-yl)-amine] showed an IC50 of 570 nM. Molecule `Oc1ccc2[nH]cc(CCNc3cc(-c4cccnc4)nc(-c4ccccn4)n3)c2c1` [Example 1.29, 3-[2-(6-Pyridin-3-yl-2-pyridin-2-yl-pyrimidin-4-ylamino)-ethyl]-1H-indol-5-ol] has an IC50 of 370 nM. Molecule `Fc1cccc2c(CCNc3cc(-c4cccnc4)nc(-c4ccccn4)n3)c[nH]c12` [Example 1.42, [2-(7-Fluoro-1H-indol-3-yl)-ethyl]-(6-pyridin-3-yl-2-pyridin-2-yl-pyrimidin-4-yl)-amine] has an IC50 of 310 nM. Work on `Cc1cccc(-c2nc(NCCc3cccc(O)c3)cc(-c3cccnc3)n2)n1` [Example 1.48, 3-{2-[2-(6-Methyl-pyridin-2-yl)-6-pyridin-3-yl-pyrimidin-4-ylamino]-ethyl}-phenol] yielded an IC50 of 80 nM. With `Oc1ccccc1CCNc1cc(-c2cccnc2)nc(-c2ccccn2)n1` [Example 1.62, 2-[2-(6-Pyridin-3-yl-2-pyridin-2-yl-pyrimidin-4-ylamino)-ethyl]-phenol] the IC50 was 150 nM. Molecule `c1ccc(-c2nc(NCCc3coc4ccccc34)cc(-c3cccnc3)n2)nc1` [Example 1.77, (2-Benzofuran-3-yl-ethyl)-(6-pyridin-3-yl-2-pyridin-2-yl-pyrimidin-4-yl)-amine] has an IC50 of 180 nM. `Cc1ccc2c(CCNc3cc(-c4cccnc4)nc(-c4cccc(C)n4)n3)c[nH]c2c1` [Example 1.82, [2-(6-Methyl-1H-indol-3-yl)-ethyl]-[2-(6-methyl-pyridin-2-yl)-6-pyridin-3-yl-pyrimidin-4-yl]-amine] gave an IC50 of 100 nM. Molecule `COc1cncc(-c2cc(NCc3cccc4[nH]ccc34)nc(-c3cccc(C)n3)n2)c1` [Example 2.2, (1H-Indol-4-ylmethyl)-[6-(5-methoxy-pyridin-3-yl)-2-(6-methyl-pyridin-2-yl)-pyrimidin-4-yl]-amine] has an IC50 of 20 nM. Work on `COc1cccc(-c2cncc(-c3cc(NCc4cccc(O)c4)nc(-c4ccccn4)n3)c2)c1` [Example 2.17, 3-({6-[5-(3-Methoxy-phenyl)-pyridin-3-yl]-2-pyridin-2-yl-pyrimidin-4-ylamino}-methyl)-phenol] yielded an IC50 of 80 nM. With `Cc1cncc(-c2cc(NCCc3c[nH]c4ccccc34)nc(-c3ccccn3)n2)c1` [Example 2.31, [2-(1H-Indol-3-yl)-ethyl]-[6-(5-methyl-pyridin-3-yl)-2-pyridin-2-yl-pyrimidin-4-yl]-amine] the IC50 was 910 nM. With `CNc1cc(-c2cncc(-c3cccc(OC)c3)c2)nc(-c2cccc(C)n2)n1` [Example 2.69, [6-[5-(3-Methoxy-phenyl)-pyridin-3-yl]-2-(6-methyl-pyridin-2-yl)-pyrimidin-4-yl]-methyl-amine] the IC50 was 420 nM. Work on `COc1cccc(-c2cncc(-c3cc(NCc4cccc(O)c4)nc(-c4cccc(C)n4)n3)c2)c1` [Example 2.70, 3-([6-[5-(3-Methoxy-phenyl)-pyridin-3-yl]-2-(6-methyl-pyridin-2-yl)-pyrimidin-4-ylamino]-methyl}-phenol] yielded an IC50 of 10 nM. `Cc1cccc(-c2nc(NCc3cccc(O)c3)cc(-c3cncc(-c4ccc(F)cc4)c3)n2)n1` [Example 2.71, 3-{[6-[5-(4-Fluoro-phenyl)-pyridin-3-yl]-2-(6-methyl-pyridin-2-yl)-pyrimidin-4-ylamino]-methyl}-phenol] gave an IC50 of 40 nM.

Tested on: dimethylnitrosamine induced liver fibrosis
Assay: not given
Conditions: rat, during the 3 weeks treatment; cited from earlier work
In the case of `c1ccc(-c2cc(-c3cn[nH]c3-c3ccccn3)ccn2)cc1` [GW6604], the side effects is listed as “no obvious side effects”.

Same assay, conditions: rat, given therapeutically, 3 weeks treatment; cited from earlier work
In the case of `c1ccc(-c2cc(-c3cn[nH]c3-c3ccccn3)ccn2)cc1` [GW6604], the “inhibition of extracellular matrix deposition” value is given as 60% and the “prevention of death rate” value is given as 40%.
